Laboratory results published in patent US20250230193A1, “CYCLIC COMPOUND HAVING SELECTIVE KRAS INHIBITORY EFFECT ON HRAS AND NRAS” (CHUGAI SEIYAKU KABUSHIKI KAISHA, priority 2022, published 2025).
Where a SMILES comes first, the peptide text is derived from it. Bridges are numbered along the chain shown (N, C = ends). [ ]: non-standard residue; d: D form. The star is where a group is joined. hPhe(3-Cl-4-CF3) = N[C@@H](CCc1ccc(C(F)(F)F)c(Cl)c1)C(=O)O; NPrPhe(4-CF3) = CCCN[C@@H](Cc1ccc(C(F)(F)F)cc1)C(=O)O; NMeAbu(4,4,4-F3) = CN[C@@H](CC(F)(F)F)C(=O)O; NMeGly(cPent) = CN[C@H](C(=O)O)C1CCCC1; Pro(4,4-F2) = O=C(O)[C@@H]1CC(F)(F)CN1; NMeGly(cBu) = CN[C@H](C(=O)O)C1CCC1; NMeD = CN[C@@H](CC(=O)O)C(=O)O; NMeL = CN[C@@H](CC(C)C)C(=O)O; NMeNva = CCC[C@H](NC)C(=O)O; NMeAbu = CC[C@H](NC)C(=O)O; Morpholide = C1CN(*)CCO1; NMeA = CN[C@@H](C)C(=O)O; Ac5c = NC1(C(=O)O)CCCC1; Aze = O=C(O)[C@@H]1CCN1; Ac4c = NC1(C(=O)O)CCC1; Sar = CNCC(=O)O

Columns and labels:
[1] = target: GDP-bound NRAS wild-type protein (Homo sapiens, UniProt P01111); test: Binding to NRAS by surface plasmon resonance (SPR), Single Cycle Kinetics; conditions: KD ratio NRAS/KRAS, SPR
GDP-bound NRAS wild-type protein, sequence (P01111 whole entry): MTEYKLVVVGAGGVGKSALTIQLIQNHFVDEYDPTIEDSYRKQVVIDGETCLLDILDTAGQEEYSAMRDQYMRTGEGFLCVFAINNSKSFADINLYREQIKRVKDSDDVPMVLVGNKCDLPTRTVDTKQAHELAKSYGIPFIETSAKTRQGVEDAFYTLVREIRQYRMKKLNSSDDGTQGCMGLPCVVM

[2] = target: GDP-bound HRAS wild-type protein (Homo sapiens, UniProt P01112); test: Binding to HRAS by surface plasmon resonance (SPR), Single Cycle Kinetics; conditions: KD ratio HRAS/KRAS, SPR
GDP-bound HRAS wild-type protein, sequence (P01112 whole entry): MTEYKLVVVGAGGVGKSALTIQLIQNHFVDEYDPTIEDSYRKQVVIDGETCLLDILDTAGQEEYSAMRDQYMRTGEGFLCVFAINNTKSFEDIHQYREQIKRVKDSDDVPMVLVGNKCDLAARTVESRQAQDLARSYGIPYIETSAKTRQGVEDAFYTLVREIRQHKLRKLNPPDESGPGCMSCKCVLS

SMILES	NRAS/KRAS (ratio of KD for GDP-bound NRAS wild-type to KD for KRAS) [1]	HRAS/KRAS (ratio of KD for GDP-bound HRAS wild-type to KD for KRAS) [2]
CCCN1C(=O)[C@@H]2CCN2C(=O)[C@H](C)N(C)C(=O)[C@H]([C@@H](C)CC)NC(=O)[C@H](CC(F)(F)F)N(C)C(=O)C[C@@H](C(=O)N2CCOCC2)N(C)C(=O)[C@H](C2CCCC2)N(C)C(=O)C2(CCCC2)NC(=O)[C@@H]2CCCN2C(=O)[C@H](CCc2ccc(C(F)(F)F)c(Cl)c2)NC(=O)CN(C)C(=O)[C@@H]1Cc1ccc(C(F)(F)F)cc1 [PP0191] ([NMeAbu(4,4,4-F3)]I[NMeA][Aze][NPrPhe(4-CF3)][Sar][hPhe(3-Cl-4-CF3)]P[Ac5c][NMeGly(cPent)][NMeD]-Morpholide; lactam N-11)	C (A compound having a KD ratio of 0.1 or more and less than 3 is denoted as C)	B (a compound having 3 or more and less than 10 is denoted as B)
CCCN1C(=O)[C@@H]2CCN2C(=O)[C@H](C)N(C)C(=O)[C@H]([C@@H](C)CC)NC(=O)[C@H](C2CCC2)N(C)C(=O)C[C@@H](C(=O)N2CCOCC2)N(C)C(=O)[C@H](C2CCCC2)N(C)C(=O)C2(CCCC2)NC(=O)[C@@H]2CCCN2C(=O)[C@H](CCc2ccc(C(F)(F)F)c(Cl)c2)NC(=O)CN(C)C(=O)[C@@H]1Cc1ccc(C(F)(F)F)cc1 [PP0192] ([NMeGly(cBu)]I[NMeA][Aze][NPrPhe(4-CF3)][Sar][hPhe(3-Cl-4-CF3)]P[Ac5c][NMeGly(cPent)][NMeD]-Morpholide; lactam N-11)	C (A compound having a KD ratio of 0.1 or more and less than 3 is denoted as C)	B (a compound having 3 or more and less than 10 is denoted as B)
CCC[C@H]1C(=O)N[C@@H]([C@@H](C)CC)C(=O)N(C)[C@@H](C)C(=O)N2CC[C@H]2C(=O)N(CCC)[C@@H](Cc2ccc(C(F)(F)F)cc2)C(=O)N(C)CC(=O)N[C@@H](CCc2ccc(C(F)(F)F)c(Cl)c2)C(=O)N2CCC[C@H]2C(=O)NC2(CCCC2)C(=O)N(C)[C@@H](C2CCCC2)C(=O)N(C)[C@H](C(=O)N2CCOCC2)CC(=O)N1C [PP0193] ([NMeNva]I[NMeA][Aze][NPrPhe(4-CF3)][Sar][hPhe(3-Cl-4-CF3)]P[Ac5c][NMeGly(cPent)][NMeD]-Morpholide; lactam N-11)	C (A compound having a KD ratio of 0.1 or more and less than 3 is denoted as C)	C (A compound having a KD ratio of 0.1 or more and less than 3 is denoted as C)
CCCN1C(=O)[C@@H]2CCN2C(=O)[C@H](C)N(C)C(=O)[C@H]([C@@H](C)CC)NC(=O)[C@H](CC)N(C)C(=O)C[C@@H](C(=O)N2CCOCC2)N(C)C(=O)[C@H](C2CCCC2)N(C)C(=O)C2(CCCC2)NC(=O)[C@@H]2CCCN2C(=O)[C@H](CCc2ccc(C(F)(F)F)c(Cl)c2)NC(=O)CN(C)C(=O)[C@@H]1Cc1ccc(C(F)(F)F)cc1 [PP0194] ([NMeAbu]I[NMeA][Aze][NPrPhe(4-CF3)][Sar][hPhe(3-Cl-4-CF3)]P[Ac5c][NMeGly(cPent)][NMeD]-Morpholide; lactam N-11)	C (A compound having a KD ratio of 0.1 or more and less than 3 is denoted as C)	B (a compound having 3 or more and less than 10 is denoted as B)
CCCN1C(=O)CN(C)C(=O)CN(C)C(=O)[C@H]([C@@H](C)CC)NC(=O)[C@H](CC(C)C)N(C)C(=O)C[C@@H](C(=O)N2CCOCC2)N(C)C(=O)[C@H](C2CCCC2)N(C)C(=O)C2(CCCC2)NC(=O)[C@@H]2CC(F)(F)CN2C(=O)[C@H](CCc2ccc(C(F)(F)F)c(Cl)c2)NC(=O)CN(C)C(=O)[C@@H]1Cc1ccc(C(F)(F)F)cc1 [PP0195] ([NMeL]I[Sar][Sar][NPrPhe(4-CF3)][Sar][hPhe(3-Cl-4-CF3)][Pro(4,4-F2)][Ac5c][NMeGly(cPent)][NMeD]-Morpholide; lactam N-11)	B (a compound having 3 or more and less than 10 is denoted as B)	C (A compound having a KD ratio of 0.1 or more and less than 3 is denoted as C)
CCCN1C(=O)[C@@H]2CCN2C(=O)[C@H](C)N(C)C(=O)[C@H]([C@@H](C)CC)NC(=O)[C@H](CC(C)C)N(C)C(=O)C[C@@H](C(=O)N2CCOCC2)N(C)C(=O)[C@H](C2CCCC2)N(C)C(=O)C2(CCCC2)NC(=O)[C@@H]2CC(F)(F)CN2C(=O)[C@H](CCc2ccc(C(F)(F)F)c(Cl)c2)NC(=O)CN(C)C(=O)[C@@H]1Cc1ccc(C(F)(F)F)cc1 [PP0196] ([NMeL]I[NMeA][Aze][NPrPhe(4-CF3)][Sar][hPhe(3-Cl-4-CF3)][Pro(4,4-F2)][Ac5c][NMeGly(cPent)][NMeD]-Morpholide; lactam N-11)	C (A compound having a KD ratio of 0.1 or more and less than 3 is denoted as C)	C (A compound having a KD ratio of 0.1 or more and less than 3 is denoted as C)
CCCN1C(=O)CN(C)C(=O)CN(C)C(=O)[C@H]([C@@H](C)CC)NC(=O)[C@H](CC(C)C)N(C)C(=O)C[C@@H](C(=O)N2CCOCC2)N(C)C(=O)[C@H](C2CCCC2)N(C)C(=O)C2(CCC2)NC(=O)[C@@H]2CCCN2C(=O)[C@H](CCc2ccc(C(F)(F)F)c(Cl)c2)NC(=O)CN(C)C(=O)[C@@H]1Cc1ccc(C(F)(F)F)cc1 [PP0197] ([NMeL]I[Sar][Sar][NPrPhe(4-CF3)][Sar][hPhe(3-Cl-4-CF3)]P[Ac4c][NMeGly(cPent)][NMeD]-Morpholide; lactam N-11)	B (a compound having 3 or more and less than 10 is denoted as B)	C (A compound having a KD ratio of 0.1 or more and less than 3 is denoted as C)
CCCN1C(=O)[C@@H]2CCN2C(=O)[C@H](C)N(C)C(=O)[C@H]([C@@H](C)CC)NC(=O)[C@H](CC(C)C)N(C)C(=O)C[C@@H](C(=O)N2CCOCC2)N(C)C(=O)[C@H](C2CCCC2)N(C)C(=O)C2(CCC2)NC(=O)[C@@H]2CCCN2C(=O)[C@H](CCc2ccc(C(F)(F)F)c(Cl)c2)NC(=O)CN(C)C(=O)[C@@H]1Cc1ccc(C(F)(F)F)cc1 [PP0198] ([NMeL]I[NMeA][Aze][NPrPhe(4-CF3)][Sar][hPhe(3-Cl-4-CF3)]P[Ac4c][NMeGly(cPent)][NMeD]-Morpholide; lactam N-11)	C (A compound having a KD ratio of 0.1 or more and less than 3 is denoted as C)	B (a compound having 3 or more and less than 10 is denoted as B)
CCCN1C(=O)CN(C)C(=O)CN(C)C(=O)[C@H]([C@@H](C)CC)NC(=O)[C@H](CC(F)(F)F)N(C)C(=O)C[C@@H](C(=O)N2CCOCC2)N(C)C(=O)[C@H](C2CCCC2)N(C)C(=O)C2(CCCC2)NC(=O)[C@@H]2CC(F)(F)CN2C(=O)[C@H](CCc2ccc(C(F)(F)F)c(Cl)c2)NC(=O)CN(C)C(=O)[C@@H]1Cc1ccc(C(F)(F)F)cc1 [PP0199] ([NMeAbu(4,4,4-F3)]I[Sar][Sar][NPrPhe(4-CF3)][Sar][hPhe(3-Cl-4-CF3)][Pro(4,4-F2)][Ac5c][NMeGly(cPent)][NMeD]-Morpholide; lactam N-11)	B (a compound having 3 or more and less than 10 is denoted as B)	C (A compound having a KD ratio of 0.1 or more and less than 3 is denoted as C)
CCCN1C(=O)CN(C)C(=O)CN(C)C(=O)[C@H]([C@@H](C)CC)NC(=O)[C@H](C2CCC2)N(C)C(=O)C[C@@H](C(=O)N2CCOCC2)N(C)C(=O)[C@H](C2CCCC2)N(C)C(=O)C2(CCCC2)NC(=O)[C@@H]2CC(F)(F)CN2C(=O)[C@H](CCc2ccc(C(F)(F)F)c(Cl)c2)NC(=O)CN(C)C(=O)[C@@H]1Cc1ccc(C(F)(F)F)cc1 [PP0200] ([NMeGly(cBu)]I[Sar][Sar][NPrPhe(4-CF3)][Sar][hPhe(3-Cl-4-CF3)][Pro(4,4-F2)][Ac5c][NMeGly(cPent)][NMeD]-Morpholide; lactam N-11)	C (A compound having a KD ratio of 0.1 or more and less than 3 is denoted as C)	C (A compound having a KD ratio of 0.1 or more and less than 3 is denoted as C)
CCC[C@H]1C(=O)N[C@@H]([C@@H](C)CC)C(=O)N(C)CC(=O)N(C)CC(=O)N(CCC)[C@@H](Cc2ccc(C(F)(F)F)cc2)C(=O)N(C)CC(=O)N[C@@H](CCc2ccc(C(F)(F)F)c(Cl)c2)C(=O)N2CC(F)(F)C[C@H]2C(=O)NC2(CCCC2)C(=O)N(C)[C@@H](C2CCCC2)C(=O)N(C)[C@H](C(=O)N2CCOCC2)CC(=O)N1C [PP0201] ([NMeNva]I[Sar][Sar][NPrPhe(4-CF3)][Sar][hPhe(3-Cl-4-CF3)][Pro(4,4-F2)][Ac5c][NMeGly(cPent)][NMeD]-Morpholide; lactam N-11)	B (a compound having 3 or more and less than 10 is denoted as B)	C (A compound having a KD ratio of 0.1 or more and less than 3 is denoted as C)
CCCN1C(=O)CN(C)C(=O)CN(C)C(=O)[C@H]([C@@H](C)CC)NC(=O)[C@H](CC)N(C)C(=O)C[C@@H](C(=O)N2CCOCC2)N(C)C(=O)[C@H](C2CCCC2)N(C)C(=O)C2(CCCC2)NC(=O)[C@@H]2CC(F)(F)CN2C(=O)[C@H](CCc2ccc(C(F)(F)F)c(Cl)c2)NC(=O)CN(C)C(=O)[C@@H]1Cc1ccc(C(F)(F)F)cc1 [PP0202] ([NMeAbu]I[Sar][Sar][NPrPhe(4-CF3)][Sar][hPhe(3-Cl-4-CF3)][Pro(4,4-F2)][Ac5c][NMeGly(cPent)][NMeD]-Morpholide; lactam N-11)	B (a compound having 3 or more and less than 10 is denoted as B)	C (A compound having a KD ratio of 0.1 or more and less than 3 is denoted as C)
